In one series the test system is 4T1-luc cells. Briefly: 4T1-luc breast tumor model, adjuvant therapy after surgery. In kind it is in vivo. The following applies: for mice with no relapse: adjuvant after surgery, 12W0271 10 mg/kg s.c. (over 333 days), doxorubicin 1 mg/kg i.p., 12 times. The procedure: To compare the therapeutic effect of the inhibitors to chemotherapy agent doxorubicin in breast cancer treatment, we treated mice with 12W0271 or doxorubicin as adjuvant therapy after surgery of primary breast tumors. Balb/c mice received mammary fat pad injection of 5×10^4 4T1-luc cells. ADAM9 inhibitor was subcutaneously injected at 10 mg/kg once a day, 5 times per week for total 12 times. Doxorubicin was intraperitoneally injected at 1 mg/kg, once a day, 5 times per week for total 12 times. […] This breast tumor animal model is a clinically relevant triple negative breast cancer with poor outcome. In doxorubicin treatment, only one mouse (12.5%) had complete response with no relapse. Body weight of survived mice in doxorubicin and 12W0271 groups was determined on day 140. Dash line indicates average body weight in normal mice.

A further series deals with T1, recombinant human ADAM9 (Homo sapiens, UniProt Q13443).
T1 construct: purchased R&D system
T1 sequence (Q13443 29-819): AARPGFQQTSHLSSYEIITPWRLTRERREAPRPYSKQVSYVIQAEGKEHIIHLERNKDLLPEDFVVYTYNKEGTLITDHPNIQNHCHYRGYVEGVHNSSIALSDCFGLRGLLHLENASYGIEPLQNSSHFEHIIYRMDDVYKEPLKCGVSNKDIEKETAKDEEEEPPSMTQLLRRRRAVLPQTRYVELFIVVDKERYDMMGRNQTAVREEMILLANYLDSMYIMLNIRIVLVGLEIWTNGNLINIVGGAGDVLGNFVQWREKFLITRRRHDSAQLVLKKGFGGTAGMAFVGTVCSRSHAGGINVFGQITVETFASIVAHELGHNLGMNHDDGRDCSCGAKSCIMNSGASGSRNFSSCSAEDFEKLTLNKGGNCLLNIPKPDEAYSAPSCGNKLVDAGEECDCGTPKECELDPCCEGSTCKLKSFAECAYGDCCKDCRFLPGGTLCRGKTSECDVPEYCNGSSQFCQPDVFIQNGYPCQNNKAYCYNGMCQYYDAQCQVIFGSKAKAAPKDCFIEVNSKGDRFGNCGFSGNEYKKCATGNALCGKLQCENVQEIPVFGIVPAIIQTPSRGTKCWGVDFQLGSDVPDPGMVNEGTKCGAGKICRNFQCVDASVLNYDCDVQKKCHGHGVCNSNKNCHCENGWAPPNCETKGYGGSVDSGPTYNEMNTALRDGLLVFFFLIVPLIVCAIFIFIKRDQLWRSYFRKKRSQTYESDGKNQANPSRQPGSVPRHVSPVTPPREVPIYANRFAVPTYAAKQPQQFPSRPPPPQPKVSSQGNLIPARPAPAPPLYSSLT
Briefly: ADAM9 enzymatic activity, ELISA system with fluorogenic peptide substrate. Format: biochemical. How it is done:
To measure the efficacy of ADAM9 inhibitors in suppression of ADAM9 enzymatic activity, we established an ELISA system using recombinant human ADAM9 and a fluorogenic peptide substrate (R&D system). Broad-spectrum metalloprotease inhibitor BB-94 was included as a positive control. […] To evaluate the specificity of ADAM9 inhibitors, we performed a migration inhibition assay in control (shGFP) and ADAM9 knockdown (shADAM9) lung cancer cells in the presence of 25 μM of each compound. […] To ensure the generality of the compounds in blocking anoikis-resistance of cancer cells, we determined the IC50 of representative compounds for anoikis (anchorage-free induced apoptosis) in cancer cell lines and leukocytes in anchorage-free culture conditions. […] Plating efficiency of Bm7 treated with 20 μM ADAM9 inhibitor and TC1 cells treated with 10 μM ADAM9 inhibitor was shown. Control and ADAM9 knockout (KO) TC1 cells were treated with ADAM9 inhibitor for 24 hours and then stained with annexin V and PI. The apoptotic cells (Annexin V positive cells) are indicated as the percentage of gated cells from three independent experiments with mean±SD.

In series [1] the test system is lung cancer cells in suspension culture. As to the kind of experiment: Cytotoxicity of lung cancer cells in suspension culture. Format: cell-based. The text has this: The representative derivatives can reduce CDCP1 expression.
Another series deals with ADAM17 (Homo sapiens, UniProt P78536). As to the kind of experiment: ADAM17 inhibition. In kind it is biochemical.
ADAM17, sequence (P78536 215-824, species assumed): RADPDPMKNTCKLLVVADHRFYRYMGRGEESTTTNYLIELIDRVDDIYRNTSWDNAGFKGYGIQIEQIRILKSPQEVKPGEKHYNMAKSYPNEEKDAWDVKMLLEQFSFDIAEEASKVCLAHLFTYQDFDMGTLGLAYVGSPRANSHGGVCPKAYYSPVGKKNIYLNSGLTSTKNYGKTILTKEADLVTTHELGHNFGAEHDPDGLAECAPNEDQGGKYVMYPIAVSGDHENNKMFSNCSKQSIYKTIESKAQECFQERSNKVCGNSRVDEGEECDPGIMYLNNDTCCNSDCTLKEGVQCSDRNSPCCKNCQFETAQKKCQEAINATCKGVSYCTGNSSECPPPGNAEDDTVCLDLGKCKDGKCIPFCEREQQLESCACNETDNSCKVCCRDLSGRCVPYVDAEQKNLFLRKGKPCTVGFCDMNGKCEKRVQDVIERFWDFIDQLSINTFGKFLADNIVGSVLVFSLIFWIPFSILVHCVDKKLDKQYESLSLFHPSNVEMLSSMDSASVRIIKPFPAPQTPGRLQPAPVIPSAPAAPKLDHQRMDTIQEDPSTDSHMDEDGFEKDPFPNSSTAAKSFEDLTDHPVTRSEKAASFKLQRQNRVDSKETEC
The subject of the next series is TC1 lung cancer cells. Briefly: Metastatic lung tumor model (intravenous TC1), combination with cisplatin. In kind it is in vivo, mice. Particulars: ADAM9 inhibitor 4 mg/kg i.v., cisplatin 1.5 mg/kg i.p., twice a week for 4 weeks. How it is done: To investigate the synergistic effect of chemotherapy drugs and ADAM9 inhibitors, we measured the cytotoxicity of individual and combination of cisplatin and 12W0271 for 3 days in TC1 cells by MTT. […] ADAM9 inhibitor (4 mg/kg) was intravenous injected twice a week for 4 weeks and cisplatin (1.5 mg/kg) was intraperitoneal injected twice a week for 4 weeks.

In the case of `COc1cccc2c1C(=O)c1c(O)c3c(c(O)c1C2=O)C[C@@](O)(C(=O)CO)C[C@@H]3O[C@H]1C[C@H](N)[C@H](O)[C@H](C)O1` [doxorubicin, reference compound], the “mice with no relapse” value with 4T1-luc cells amounted to 12.5%.

Consider `O=C(Nc1nc(CCN2C(=O)c3ccccc3C2=O)cs1)c1cc2ccccc2s1` [6X-0214], for which, at recombinant human ADAM9, the ADAM9 activity result is recorded as “decreased ADAM9 activity to a similar extent in a dose-dependent manner”. The “IC50 for the cytotoxicity of lung cancer cells, compared to compound 310” value in series [1] is on record as “strongly reduced the IC50”. The “inhibitory effects in ADAM17” value against ADAM17 is “no inhibitory effects”.

In the case of `N.N.[Cl][Pt][Cl]` [cisplatin], the survival time result in the series on TC1 lung cancer cells is “significantly prolonged survival time”.

As for `O=C1c2ccccc2C(=O)N1CCc1csc(Nc2nc(CCN3C(=O)c4ccccc4C3=O)cs2)n1` [12W-0271], the “mice with no relapse” value in the series on 4T1-luc cells was 37.5%. For the same molecule, in the series on 4T1-luc cells (long term, 10 mg/kg s.c.), the “condition and body size of survived mice” value is “healthy condition with bigger body size than the survival one in doxorubicin group”. For the same molecule, the ADAM9 activity result at recombinant human ADAM9 is listed as “decreased ADAM9 activity to a similar extent in a dose-dependent manner”. The “IC50 for the cytotoxicity of lung cancer cells, compared to compound 310” value in series [1] was “strongly reduced the IC50”. For the same molecule, the “inhibitory effects in ADAM17” value against ADAM17 is listed as “no inhibitory effects”.

The record behind these values is patent publication US11357759B2, “Composition including ADAM9 inhibitor and the use thereof” (China Medical University, priority 2017, dated 2022).
